Assay results: US6906046B2 (Celltech R & D Inc., priority 2000, dated 2005)
Like-named read-outs stand apart in the source and are kept apart here.

Experiments:
A549 cells = assay: Inhibition of TNF-α induced apoptosis in A549 cells (crystal violet); type: cell-based; details: Homo sapiens, percent inhibition at 20 μM or IC50 in μM
Protocol: The protocol used for determining inhibition of apoptosis in A549 cells was adopted from a system previously described (K. Last-Barney et al., J. of Immunology 141:527-530, 1988). Briefly, 10^5 cells in 200 μL 10% FBS/RPMI antibiotic containing culture medium were plated into 96 well round bottom culture plates and allowed to adhere for 6 hours at 37° C. in a 5% CO2 atmosphere. The media was removed and 100 μL of RPMI+1 μg/mL actinomycin-D was added to each well, followed by 90 μL of test compound solution in 1% DMSO. This was incubated for 1 hour 10 AL TNF-α was added at its EC50 (normally 1 ng/mL FAC) and the plates incubated for 18 hours. The media was aspirated from the plates and 100 μL of 0.5% crystal violet in 20% methanol was added. After 10 minutes the plates were rinsed with water to remove excess stain, air dried, and read on a Spectramax at a wavelength of 590 nm. The data obtained from the Spectramax was converted into percent inhibition data at a concentration of 20 μM or IC50 measured in μM.

NFκB = NFκB luciferase reporter assay in TNF-α stimulated A549 cells (E-selectin promoter); type: cell-based; details: % inhibition or IC50 in μM; for IC50: Homo sapiens
Protocol: A549 cells were stably transfected with an E-selectin promoter containing three NFκB binding sites driving luciferase expression. For the assay, 5×10^4 cells were incubated in 96 well round bottom plates overnight in 100 μL of 10% FBS/RPMI medium at 37° C. in a 5% CO2 atmosphere. The following morning the medium was removed and 90 μL of a 1% DMSO solution of test compound solution was added and the plates incubated for 1 hour. 10 μL of TNF-α was added at its EC50 (normally 6 ng/mL FAC) to each well and the plate incubated for 5 hours. 100 μL of luciferase buffer was added, and after 10 minutes luminescence was read on a Wallac Victor 1420 Multilabel Counter. The data obtained from the Wallac Victor was converted into % inhibition data or IC50 measured in μM.

CXCR1 = biological target: T1, CXCR1 (Homo sapiens, UniProt P25024); assay: CXCR1 radioligand binding assay with 125I labeled IL-8; details: human recombinant CHO cells; for IC50: percent inhibition or IC50, read-out: CXCR1 inh.
T1 construct: host or cells: CHO cells
T1 sequence (P25024 1-350): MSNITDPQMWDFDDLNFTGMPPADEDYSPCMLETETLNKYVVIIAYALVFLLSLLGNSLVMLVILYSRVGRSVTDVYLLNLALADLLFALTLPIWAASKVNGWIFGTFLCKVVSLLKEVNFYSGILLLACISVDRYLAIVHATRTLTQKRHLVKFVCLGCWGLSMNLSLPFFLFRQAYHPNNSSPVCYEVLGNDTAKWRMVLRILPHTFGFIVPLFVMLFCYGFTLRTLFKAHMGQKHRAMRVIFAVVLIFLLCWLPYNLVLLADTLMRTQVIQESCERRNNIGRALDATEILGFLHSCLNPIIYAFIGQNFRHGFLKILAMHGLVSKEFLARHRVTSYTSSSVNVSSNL
Description: (§1) This assay is a radioligand binding assay in human recombinant CHO cells with ^125I labeled IL-8 as the ligand. The assay procedure is described in Ahuja, S. K.; Murphy, P. M;.

CXCR2 = biological target: T2, CXCR2 (Homo sapiens, UniProt P25025); assay: CXCR2 radioligand binding assay with 125I labeled IL-8; details: human recombinant CHO cells; for IC50: percent inhibition or IC50, read-out: CXCR2 2 inh.; for CXCR2 2 inh.: percent inhibition or IC50
T2 construct: host or cells: CHO cells
T2 sequence (P25025 1-360): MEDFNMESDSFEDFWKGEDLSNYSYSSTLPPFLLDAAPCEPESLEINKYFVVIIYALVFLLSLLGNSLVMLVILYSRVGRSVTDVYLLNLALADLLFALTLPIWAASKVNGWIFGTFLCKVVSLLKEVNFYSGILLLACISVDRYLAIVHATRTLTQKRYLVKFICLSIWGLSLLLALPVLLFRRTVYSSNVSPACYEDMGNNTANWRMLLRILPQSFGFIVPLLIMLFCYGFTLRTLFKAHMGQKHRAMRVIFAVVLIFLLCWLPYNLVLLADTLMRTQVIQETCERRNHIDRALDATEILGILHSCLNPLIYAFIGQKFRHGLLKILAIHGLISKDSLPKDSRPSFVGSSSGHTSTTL
Description: as §1

[1] = inhibition of TNF-α induced apoptosis in A549 cells, given as class symbols, read-out: Apopt inh
[2] = A549 cells with NFκB luciferase reporter, TNF-α at its EC50, 5 hours
[3] = TNF-α stimulated A549 cells, E-selectin promoter luciferase, given as class symbols, read-out: NFκB inh

Structure (SMILES) | IC50 (A549 cells; [1]) | IC50 (NFκB; [3]) | other results
CCCOC(=O)[C@H]1[C@H](C(=O)OCC[Si](C)(C)C)C2C/C(=N\NC(=S)NC)[C@H]1c1cc(O)ccc12 [Example 81] | < 10 µM | – | –
C[Si](C)(C)CCOC(=O)C1C2CC(=O)[C@@H](c3cc(O)ccc32)C1C(=O)OCC[Si](C)(C)C (stereo partly drawn) [Example 113] | – | – | NFkB inh. (NFκB; [2]): * (refers to percent inhibition from 6% to 64%); IC50 (CXCR1): 10 to 50 µM; IC50 (CXCR2): 10 to 50 µM
CCCOC(=O)[C@H]1[C@H](C(=O)OCC[Si](C)(C)C)C2CC(C)(O)[C@H]1c1cc(O)ccc12 (stereo partly drawn) [Example 99] | – | 10 to 50 µM | –
CCCOC(=O)[C@H]1[C@H](C(=O)OCC[Si](C)(C)C)C2CC(NC)[C@H]1c1cc(O)ccc12 (stereo partly drawn) [Example 86] | – | 10 to 50 µM | –
CCCOC(=O)[C@H]1[C@H](C(=O)OCC[Si](C)(C)C)C2C/C(=N\OCc3cccc(F)c3)[C@H]1c1cc(O)ccc12 (racemic) [Example 72, 11-(3-Fluoro-benzyloxyimino)-4-hydroxy-tricyclo[6.2.2.0^2,7]dodeca-2(7),3,5-triene-9,10-dicarboxylic acid 10-propyl ester 9-(2-trimethylsilanyl-ethyl) ester] | < 10 µM | – | –
CCCOC(=O)C1C(C(=O)OCC[Si](C)(C)C)C2C/C(=N\Nc3ccccc3)[C@H]1c1cc(O)ccc12 (stereo partly drawn) [Example 111] | – | – | IC50 (A549 cells; A549 cells, actinomycin-D + TNF-α at its EC50, 18 hours, read-out: Apopt. Inh.): < 10 µM; IC50 (NFκB; A549 cells with NFκB luciferase reporter, TNF-α at its EC50, 5 hours, read-out: NFkB inh.): 10 to 50 µM; IC50 (CXCR1): < 10 µM; IC50 (CXCR2): < 10 µM
CCCOC(=O)[C@H]1[C@H](C(=O)OCC[Si](C)(C)C)C2CC3(OCCO3)[C@H]1c1cc(O)ccc12 [Example 97] | – | 10 to 50 µM | inhibition at 20 µM (A549 cells; [1]): 6 to 64%
CCCOC(=O)[C@H]1[C@H](C(=O)OCC[Si](C)(C)C)C2C/C(=N\NS(=O)(=O)c3ccccc3)[C@H]1c1cc(O)ccc12 [Example 58] | 10 to 50 µM | – | –
CCCOC(=O)[C@H]1[C@H](C(=O)OCC[Si](C)(C)C)C2CC(=O)[C@H]1c1ccccc12 [Example 52] | – | 10 to 50 µM | inhibition at 20 µM (A549 cells; [1]): 6 to 64%
CCCOC(=O)[C@H]1[C@H](C(=O)OCC[Si](C)(C)C)C2CC(N(Cc3ccc(C)cc3)C(C)=O)[C@H]1c1cc(O)ccc12 (stereo partly drawn) [Example 91] | – | 10 to 50 µM | –
CCCOC(=O)[C@H]1[C@H](C(=O)OCC[Si](C)(C)C)C2CC(NCc3ccc(C)cc3)[C@H]1c1cc(O)ccc12 (stereo partly drawn) [Example 84] | < 10 µM | 10 to 50 µM | –
CCCOC(=O)[C@H]1[C@H](C(=O)OCCS(=O)(=O)c2ccc(C)cc2)C2CC(=O)[C@H]1c1cc(O)ccc12 [Example 106] | – | 10 to 50 µM | –
CCCOC(=O)[C@H]1[C@H](C(=O)OCC[Si](C)(C)C)C2C/C(=N\OCC(=O)N3CCN(c4ccccc4)CC3)[C@H]1c1cc(O)ccc12 (stereo in doubt) [Example 73] | – | 10 to 50 µM | –
C=C1CC2c3ccc(O)cc3[C@H]1[C@@H](C(=O)OCCC)[C@@H]2C(=O)OCC[Si](C)(C)C [Example 101] | < 10 µM | – | –
CCCOC(=O)[C@H]1[C@H](C(=O)OCC[Si](C)(C)C)C2CC(N(C)C(C)=O)[C@H]1c1cc(OC(C)=O)ccc12 (stereo partly drawn) [Example 92] | – | 10 to 50 µM | –
CCCOC(=O)[C@@H]1C2C(=O)CC(c3ccc(O)cc32)[C@H]1C(=O)OCCC12CC3CC(CC(C3)C1)C2 (stereo partly drawn) [Example 108] | – | 10 to 50 µM | –
CCCOC(=O)[C@H]1[C@H](C(=O)OCC[Si](C)(C)C)C2CC(O)[C@H]1c1cc(O)ccc12 (stereo partly drawn) [Example 82] | < 10 µM | 10 to 50 µM | –

Structure (SMILES) | IC50 (A549 cells; [1]) | IC50 (NFκB; [3]) | other results
CCCOC(=O)C1C(C(=O)OCC[Si](C)(C)C)C2C[C@@H](Nc3ccccc3)[C@H]1c1cc(O)ccc12 (stereo partly drawn) [Example 115] | – | – | NFkB inh. (NFκB; [2]): * (refers to percent inhibition from 6% to 64%); CXCR1 inh. (CXCR1; percent inhibition or IC50): * (refers to percent inhibition from 10-36%); CXCR2 2 inh. (CXCR2): * (refers to percent inhibition from 10-36%)
CCCCCN(CCCCC)C(=O)[C@@H]1[C@H](C(=O)N(C)CC(=O)NCc2c(OC)cc(OC)cc2OC)C2CC(=O)[C@H]1c1cc(OCc3ccc(C(=O)N4CCC[C@H]4C(=O)N(C)C)cc3)ccc12 [Example 5] | 10 to 50 µM | – | –
CCCOC(=O)[C@H]1[C@H](C(=O)OCC[Si](C)(C)C)C2C/C(=N\OCc3nnsc3Cl)[C@H]1c1cc(O)ccc12 (racemic) [Example 71, 11-(5-Chloro-[1,2,3]thiadiazol-4-ylmethoxyimino)-4-hydroxy-tricyclo[6.2.2.0^2,7]dodeca-2(7),3,5-triene-9,10-dicarboxylic acid 10-propyl ester 9-(2-trimethylsilanyl-ethyl) ester] | < 10 µM | 10 to 50 µM | –
C=CCOC(=O)c1ccc(COc2ccc3c(c2)[C@@H]2C(=O)CC3[C@@H](C(=O)N(C)CC(=O)NCc3c(OC)cc(OC)cc3OC)[C@H]2C(=O)OCC[Si](C)(C)C)cc1 [Example 110] | – | – | inhibition at 20 µM (A549 cells; [1]): 6 to 64%
CCCOC(=O)C1C(C(=O)OCC[Si](C)(C)C)C2C/C(=N\Nc3ccccc3Br)[C@H]1c1cc(O)ccc12 (stereo partly drawn) [Example 112] | – | – | NFkB inh. (NFκB; [2]): * (refers to percent inhibition from 6% to 64%); IC50 (CXCR1): 10 to 50 µM; IC50 (CXCR2): < 10 µM
COc1ccc(COC(=O)[C@H]2[C@H](C(=O)OCC[Si](C)(C)C)C3CC(O)[C@H]2c2cc(O)ccc23)c(OC)c1 (stereo partly drawn) [Example 95] | – | – | inhibition at 20 µM (A549 cells; [1]): 6 to 64%
CCCOC(=O)[C@H]1[C@H](C(=O)OCC[Si](C)(C)C)C2C/C(=N/OCC(=O)N3CCN(c4ccccc4)CC3)[C@H]1c1cc(O)ccc12 [Example 74] | – | 10 to 50 µM | –
COc1ccc(COC(=O)[C@H]2[C@H](C(=O)OCC[Si](C)(C)C)C3CC(O)[C@H]2c2cc(O)ccc23)c(OC)c1 (stereo partly drawn) [Example 96] | < 10 µM | – | –
CCCOC(=O)C1C(C(=O)OCC[Si](C)(C)C)C2C[C@H](Nc3ccccc3)[C@H]1c1cc(O)ccc12 (stereo partly drawn) [Example 114] | – | – | NFkB inh. (NFκB; [2]): * (refers to percent inhibition from 6% to 64%); CXCR2 2 inh. (CXCR2): * (refers to percent inhibition from 10-36%)
CCCOC(=O)[C@H]1[C@H](C(=O)OCC[Si](C)(C)C)C2CC(O)(CO)[C@H]1c1cc(O)ccc12 (stereo partly drawn) [Example 102] | – | – | inhibition at 20 µM (A549 cells; [1]): 6 to 64%
CCCOC(=O)[C@H]1[C@H](C(=O)OCCC(C)(C)C)C2CC(=O)[C@H]1c1cc(O)ccc12 [Example 107] | – | 10 to 50 µM | –
CCCOC(=O)[C@@H]1C2C(=O)CC(c3ccc(O)cc32)[C@H]1C(=O)OCCC[Si](C)(C)C (stereo partly drawn) [Example 109] | – | 10 to 50 µM | –
CCCOC(=O)[C@H]1[C@H](C(=O)OCC[Si](C)(C)C)C2C/C(=N\NCCO)[C@H]1c1cc(O)ccc12 [Example 56] | < 10 µM | – | –
CCCNC1CC2c3ccc(O)cc3[C@H]1[C@@H](C(=O)OCCC)[C@@H]2C(=O)OCC[Si](C)(C)C (stereo partly drawn) [Example 85] | – | 10 to 50 µM | –
CCCOC(=O)[C@H]1[C@H](C(=O)OCC[Si](C)(C)C)C2CC(N(C)C(C)=O)[C@H]1c1cc(O)ccc12 (stereo partly drawn) [Example 94] | – | 10 to 50 µM | –
CCCOC(=O)[C@H]1[C@H](C(=O)OCC[Si](C)(C)C)C2CC(=CC(=O)OCC)[C@H]1c1cc(O)ccc12 [Example 98] | – | – | inhibition at 20 µM (A549 cells; [1]): 6 to 64%
